Experimental data: article PMC9909315, “SY-707, an ALK/FAK/IGF1R inhibitor, suppresses growth and metastasis of breast cancer cells” (Acta Biochimica et Biophysica Sinica, 2022)
Like-named read-outs stand apart in the source and are kept apart here.

Tests used:
Pharmacokinetic study = assay type: in vivo, beagle dogs; settings: serum, Beagle dog, 5 mg/kg PO; for CL/F: read-out: Cl_F_obs (converted); for MRT inf: read-out: MRT INF_obs
Procedure: Female SD rats (5-6 weeks old) or beagle dogs were administrated with SY-707 at a single dose of 5 mg/kg, and blood samples were taken sequentially from 2 min to 24 h after compound administration. […] The serum samples were collected by centrifugation and stored at –80 °C. Compound concentrations in the sample serums were further analyzed with an API-4000 LC-MS/MS system (Applied Biosystem, Foster City, USA), and pharmacokinetic parameters ( T 1/2, T max, C max, AUC 0-INF, Cl_F_obs, MRT INF_obs, and F(%)) were calcuated using the WinNonlin software (version 6.2; WinNonlin Professional, Pharsight, USA).

T47D cells = assay: Western blot for cleaved PARP; assay type: cell-based; settings: various concentrations, 24 h
Procedure: (§1) Equal amounts of cell lysates were loaded onto 10% SDS-PAGE gel and separated by electrophoresis. Separated proteins were then electro-transferred onto polyvinylidene fluoride (PVDF) membranes (Millipore, Bedford, USA). After being blocked with Tris-buffered saline containing 0.1% Tween-20 (TBST) and 5% bovine serum albumin (BSA), the membranes were incubated with primary antibodies at room temperature for 2 hours or at 4°C, then washed with TBST, followed by treatment with horseradish peroxidase (HRP)-conjugated goat anti-rabbit IgG secondary antibody at room temperature for another 1 h. The targeted protein bands were visualized using an enhanced chemiluminescence (ECL) plus system (Thermo Fisher Scientific). Primary antibodies against phospho-FAK (3283, 1:1000 dilution), phospho-ERK (4377, 1:2000 dilution), phospho-AKT (4060, 1:2000 dilution), FAK (3285, 1:1000 dilution), AKT (6703, 1:1000 dilution) and β-Actin (5125, 1:10,0000 dilution) were purchased from Cell Signaling Technology (Beverly, USA) and the HRP-conjugated goat anti-rabbit IgG (ZDR-5306, 1:10,000 dilution) was purchased from Jackson (West Grove, USA ).
(§2) Cells were cultured and treated with SY-707 under the indicated concentrations (0.01, 0.1 and 1 μM respectively) for 24 h, then stained with Annexin-V and 7-AAD for cell apoptosis analysis by Guava flow cytometry.

MCF-7 cells = assay: Western blot for cleaved PARP; assay type: cell-based; settings: MCF-7, various concentrations, 24 h
Procedure: as §1, §2

[1] = target: FAK, Pyk2, LTK, IRK and IGF1R; assay: HTRF kinase enzyme assay, summary over several kinases; assay type: biochemical; settings: around; span over the named kinases
Procedure: Homogeneous time-resolved fluorescence (HTRF) assay was performed to analyze kinase enzyme activity and compound potency using HTRF ® KinEASE ^TM-TK kit (Cisbio Bioassays, Shanghai, China). Compound SY-707 was serially diluted by 3 folds from 1 mM stock solution in DMSO, and 4 μL of the diluted solution of the compounds was added to 96 μL of reaction buffer (50 mM HEPES, pH 7.0, 0.1 mM Na 3VO 4, 0.01% BAS, 5 mM MgCl 2, 1 mM DTT), then 2.5 μL of 4× compound solution and 5 μL of 2× kinases solution were added to a 384-well plate (OptiPlate-384; PerkinElmer, Wellesley, USA ). The resulted solutions were briefly mixed, centrifuged and incubated for 5 min. Finally, 2.5 μL of 4× ATP/TK peptide (ATP at K m for each kinase) solution was added to the reaction system to initiate the reaction. The enzymatic reaction was carried out for 60-120 min at 23°C, then terminated by addition of 5 μL of detection solution containing TK antibody-cryptate and 5 μL of Streptravidin-XL-665. The mixture was incubated for additional 1 h at 23°C. The fluorescent signals were measured with an EnVision multilabel plate reader (PerkinElmer). IC 50 values of the compounds were calculated using the GraFit software (Version 6.0) and presented as the mean of three independent experiments performed in duplicate.

solid cancer cells = assay: Cell proliferation assay, summary over the cell line series; assay type: cell-based; settings: 72 h, read-out: IC50 values (summary over the solid cancer cell lines)
Procedure: MCF-7, T47D, MDA-MB-231, MIA Paca-2, PANC-1, SW620, HT-29, U87MG, and A549 cell lines were purchased from the Cell Bank of Chinese Academy of Science (Shanghai, China). Cells were cultured in DMEM or RPMI-1640 (Gibco, BRL, USA) supplemented with 10% FBS (HyClone, Logan, USA) and 50 IU penicillin/streptomycin in a humidified atmosphere with 5% CO 2 at 37°C. The effects of SY-707 on cell proliferation were measured using CellTiter-Glo ® or CellTiter-Blue ® Cell Viability Assay kits (Promega, Beijing, China). In brief, cells were seeded in 96-well plates at low destiny with 195 μL of medium per well. The stock solutions of compounds were 3-fold serially diluted with DMSO from 10 mM to 0.3 nM, and 4 μL of solution at each concentration was mixed with 96 μL of serum free medium, then 5 μL of the resulted solution was added to each well. […] The luminescence signals were measured using EnVision ® multilabel plate reader (PerkinElmer), and the fluorescent signals were examined using FlexStation 3 (Molecular Devices, Sunnyvale, USA), and the IC 50 values were calculated using Prism ® software (Version 5.0) and presented as the average of three independent experiments performed in duplicate.

COc1cc(N2CCC(N3CCN(C)CC3)CC2)ccc1Nc1nc2c(c(Nc3ccccc3S(=O)(=O)NC(C)C)n1)CCN2 [SY-707, N-isopropyl-2-((2-((2-methoxy-4-(4-(4-methylpiperazin-1-yl)piperidin-1-yl)phenyl)amino)-6,7-dihydro-5H-pyrrolo[2,3-d]pyrimidin-4-yl)amino)benzenesulfonamide]
AUC(0-inf) (Pharmacokinetic study; both sexes, All): 459 ng·h/mL
Cmax (Pharmacokinetic study; both sexes, All): 36 ng/mL
Tmax (Pharmacokinetic study; both sexes, All): 2.83 h
bioavailability (Pharmacokinetic study; both sexes, All): 21.1%
half-life (Pharmacokinetic study; both sexes, All): 9.72 h
CL/F (Pharmacokinetic study; both sexes, All): 195 mL/min/kg
MRT inf (Pharmacokinetic study; both sexes, All): 13.6 h
AUC(0-inf) (Pharmacokinetic study; Female): 438 ng·h/mL
Cmax (Pharmacokinetic study; Female): 34.2 ng/mL
Tmax (Pharmacokinetic study; Female): 2.67 h
bioavailability (Pharmacokinetic study; Female): 18.8%
half-life (Pharmacokinetic study; Female): 10.1 h
CL/F (Pharmacokinetic study; Female): 202 mL/min/kg
MRT inf (Pharmacokinetic study; Female): 13.7 h
AUC(0-inf) (Pharmacokinetic study; Male): 479 ng·h/mL
Cmax (Pharmacokinetic study; Male): 37.8 ng/mL
Tmax (Pharmacokinetic study; Male): 3 h
bioavailability (Pharmacokinetic study; Male): 23.8%
half-life (Pharmacokinetic study; Male): 9.33 h
CL/F (Pharmacokinetic study; Male): 188 mL/min/kg
MRT inf (Pharmacokinetic study; Male): 13.6 h
cleaved PARP (T47D cells): markedly detected
cleaved PARP (MCF-7 cells): markedly detected
IC50 [1]: 1 to 10 nM
IC50 (solid cancer cells): 500 to 10000 nM
